This test has as its system bone cells containing osteoclast cells. Briefly: Pit formation assay: inhibition of osteolysis (absorption pits on ivory slices). Format: cell-based, ICR mice. Conditions: 72 h; for No. of absorption pits (Mean ± SD): 10 µM; for inhibition at 10 µM: Mus musculus, Osteoclast, compound 10^-5 M, 0% = pits with rPTH (1×10^-8 M) without medicine, 100% = no absorption pit, read-out: Ratio of inhibition (%). Here is the method:
ICR mice 11-12 days old (purchased from Charles River Japan) were euthanized by anesthesia with ether and immediately immersed in 70% ethanol for disinfection. By the use of ophthalmologist scissors and pincers sterilized in advance with ethanol, femur and tibia were excised from the sacrificed mice and chopped into small pieces in an α-MEM culture medium (purchased from Flow Laboratories Corp.). containing 5% FBS (purchased from Irvine Scientific Corp.), 100 U/ml penicillin and 100 μg/ml streptomycin. The supernatant formed consequently was recovered by pipeting, cleaned with the culture broth, and suspended in a 5% FBS α-MEM culture broth to obtain bone cells containing osteoclast cells. The supernatant of a bone cell-floating liquid formed after 3 minutes' standing of the bone cells at rest was recovered and passed through a mesh (cell strainer, 70 μm, purchased from Falcon Corp.). The filtrate was adjusted to a cell concentration of 1×10^7 /ml and used for the pit formation assay.
An ivory piece was cut into slices, 150 μm in thickness, by the use of a precision low-speed cutting machine (purchased from Buehler Corp.). Cylindrical holes, 6 mm in diameter, were perforated in the slices by the use of a one-hole punch. The ivory slices were immersed in 70% ethanol and subjected therein to an ultrasonic cleaning treatment twice each for five minutes and washed three times with a sterilized PBS and twice with the culture medium. The ivory slices were set in place on a 96-hole culture plate (purchased from Falcon Corp.). The perforated ivory slices on the culture plate, with a culture broth containing a given compound of the present invention prepared in a concentration of 2×10^-5 M added in a fixed volume of 100 μl (final medicine concentration 1×10^-5 M) to each of the holes and a culture broth containing prepared bone cells in a concentration of 1×10^7 /ml placed in each of the holes, were cultured for three days in a 10% CO2 incubator at 37° C. After the culture, the ivory slices were placed in an aqueous 2 N sodium hydroxide and the cells on the slices were removed by the use of a rubber spatula. The ivory slices were washed with water and methanol. The absorption pits formed in the ivory slices were dyed with Coomassie Brilliant Blue and were counted under a microscope. Though the numbers of absorption pits were naturally found to disperse among test lots, depending on the ratios of varying specie s of cells in the bone cell suspensions and the lots of animals used, satisfactorily uniform test results were found in one and the same test lot. The ratio of inhibition of osteolysis was calculated on the 100% scale, in which 0% stands for the number of absorption pits found in the culture broth in the presence of rPTH (1×10^-8 M) and in the absence of a medicine and 100% for total absence of absorption pit.
The test described above was performed in a total of ten runs, Tests 1-10.
In the columns titled "Added medicine No." found in Table 2 and Table 3, the symbol (-) denotes a control involving no addition of medicine and the numerical No. denotes the No. of the compound mentioned above.

For the molecule `CC(C)CCCC(C)CC(=O)c1c(O)cc(O)cc1O` (centres unmarked) [Compound 6, (2,6-dimethylheptyl) (2,4,6-trihydroxyphenyl) ketone], the “No. of absorption pits (Mean ± SD)” value was determined as 63.4 ± 12.4 and the inhibition at 10 µM turned out to be 61.4%.
The corresponding values for `CC(C)=CCC1(CC=C(C)C)C(=O)C(C(=O)C(C)C)=C(O)C=C1O` [Compound 13, 2,2-bis(3-methyl-2-butenyl)-3,5-dihydroxy-6-(2-methyl-1-oxopropyl)cyclohexa-3,5-dienone] are 16.8 ± 3.6 and 79%.
On the same counts, the results for `CC(C)=CCc1c(O)cc(O)c(C(=O)C(C)C)c1O` [Compound 14, {3-(3-methyl-2-butenyl)-2,4,6-trihydroxyphenyl} (2-propyl) ketone] are 26.0 ± 2.6 and 67.5%.
On the same counts, the results for `CC(C)=CCc1c(O)c(CC=C(C)C)c(O)c(C(=O)CC(C)C)c1O` [Compound 15, {3,5-bis(3-methyl-2-butenyl)-2,4,6-trihydroxyphenyl} (2-methylpropyl) ketone] are 8.3 ± 2.4 and 89.6%.
`CC(C)=CCC1=C(O)C(CC=C(C)C)(CC=C(C)C)C(=O)C(C(=O)CC(C)C)=C1O` [Compound 16, 3,5-dihydroxy-6-(3-methyl-1-oxobutyl)-2,2,4-tris(3-methyl-2-butenyl)cyclohexa-3,5-dienone]: the “No. of absorption pits (Mean ± SD)” value was determined as 0 and the inhibition at 10 µM was 100%.
On the same counts, the results for `CC(C)=CCCC(C)=CCc1c(O)c(CC=C(C)CCC=C(C)C)c(O)c(C(=O)CC(C)C)c1O` [Compound 19, {3,5-bis(3,7-dimethyl-2,6-octadienyl)-2,4,6-trihydroxyphenyl} (2-methylpropyl) ketone] are 55.3 ± 6.1 and 70.5%.
The corresponding values for `CC(C)=CCCC(C)=CCC1=C(O)C(CC=C(C)CCC=C(C)C)(CC=C(C)CCC=C(C)C)C(=O)C(C(=O)CC(C)C)=C1O` (centres unmarked) [Compound 20, 3,5-dihydroxy-6-(3-methyl-1-oxobutyl)-2,2,4-tris(3,7-dimethyl-2,6-octadienyl)cyclohexa-3,5-dienone] are 3.0 ± 1.3 and 98.4%.
On the same counts, the results for `CC(C)=CCCC(C)=CCC1(CC=C(C)CCC=C(C)C)C(=O)C(C(=O)CC(C)C)=C(O)C=C1O` (centres unmarked) [Compound 21, 2,2-bis(3,7-dimethyl-2,6-octadienyl)-3,5-dihydroxy-6-(3-methyl-1-oxobutyl)cyclohexa-3,5-dienone] are 3.5 ± 1.4 and 98.1%.
Regarding `CC(C)=CCC1=C(O)C(CC=C(C)C)(CC=C(C)C)C(=O)C(C(=O)CC(C)CCCC(C)C)=C1O` (centres unmarked) [Compound 22, 3,5-dihydroxy-6-(3,7-dimethyl-1-oxooctyl)-2,2,4-tris(3-methyl-2-butenyl)cyclohexa-3,5-dienone], the “No. of absorption pits (Mean ± SD)” value was determined as 3.5 ± 1.1 and the inhibition at 10 µM stood at 98.1%.
Consider `CC(C)=CCC1(CC=C(C)C)C(=O)C(C(=O)CC(C)CCCC(C)C)=C(O)C=C1O` (centres unmarked) [Compound 24, 2,2-bis(3-methyl-2-butenyl)-3,5-dihydroxy-6-(3,7-dimethyl-1-oxooctyl)cyclohexa-3,5-dienone], for which the “No. of absorption pits (Mean ± SD)” value worked out at 39.3 ± 13.9 and the inhibition at 10 µM was 75.8%.
On the same counts, the results for `CC(C)=CCc1c(O)c(O)c(CC=C(C)C)c(C(=O)CC(C)C)c1O` [Compound 25, {3,6-bis(3-methyl-2-butenyl)-2,4,5-trihydroxyphenyl} (2-methylpropyl) ketone] are 0 and 100%.
The corresponding values for `CC(C)=CCc1c(O)c(O)cc(C(=O)CC(C)C)c1O` [Compound 26, {3-(3-methyl-2-butenyl)-2,4,5-trihydroxyphenyl} (2-methylpropyl) ketone] are 29.3 ± 4.8 and 85.5%.
On to `CC(C)=CCC1=C(O)C(O)(CC=C(C)C)C(=O)C(C(=O)C(C)C)=C1O` (centres unmarked) [Compound 29, 2,4-bis(3-methyl-2-butenyl)-6-(2-methyl-1-oxopropyl)-2,3,5-trihydroxycyclohexa-3,5-dienone], for which the “No. of absorption pits (Mean ± SD)” value worked out at 20.3 ± 2.1 and the inhibition at 10 µM worked out at 79.5%.
Turning to `CC(=O)C1=C(O)C(CC=C(C)C)=C(O)C(O)(CC=C(C)C)C1=O` (centres unmarked) [Compound 30, 2,4-bis(3-methyl-2-butenyl)-6-(1-oxoethyl)-2,3,5-trihydroxycyclohexa-3,5-dienone], the “No. of absorption pits (Mean ± SD)” value came to 21.4 ± 3.9 and the inhibition at 10 µM amounted to 78.2%.
The corresponding values for `CC(C)=CCC1=C(O)C(O)(CC=C(C)C)C(=O)C(C(=O)c2ccccc2)=C1O` (centres unmarked) [Compound 32, 2,4-bis(3-methyl-2-butenyl)-6-benzoyl-2,3,5-trihydroxycyclohexa-3,5-dienone] are 33.9 ± 4.1 and 65.7%.
The corresponding values for `CC(C)CC(=O)C1=C(O)C(Cc2ccccc2)=C(O)C(O)(Cc2ccccc2)C1=O` (centres unmarked) [Compound 33, 2,4-bisbenzyl-6-(3-methyl-1-oxobutyl)-2,3,5-trihydroxycyclohexa-3,5-dienone] are 9.8 ± 1.8 and 95.1%.
`CC(C)CC(=O)c1c(O)c(Cc2ccccc2)c(O)c(Cc2ccccc2)c1O` [Compound 34, {3,5-bisbenzyl-2,4,6-trihydroxyphenyl} (2-methylpropyl) ketone]: the “No. of absorption pits (Mean ± SD)” value came out at 8.2 ± 1.9 and the inhibition at 10 µM is 95.9%.
Consider `CC(C)CC(=O)C1=C(O)C(Cc2ccccc2)=C(O)C(Cc2ccccc2)(Cc2ccccc2)C1=O` [Compound 36, 2,2,4-trisbenzyl-6-(3-methyl-1-oxobutyl)-3,5-dihydroxycyclohexa-3,5-dienone], for which the “No. of absorption pits (Mean ± SD)” value was 3.8 ± 0.9 and the inhibition at 10 µM turned out to be 98.1%.
Take `CC(C)CCc1c(O)c(CCC(C)C)c(O)c(C(=O)CC(C)C)c1O` [Compound 37, {3,5-bis(3-methylbutyl)-2,4,6-trihydroxyphenyl} (2-methylpropyl) ketone]: the “No. of absorption pits (Mean ± SD)” value was found to be 14.4 ± 4.9 and the inhibition at 10 µM worked out at 91.1%.
On the same counts, the results for `O=C(Cc1ccccc1)c1c(O)cc(O)cc1O` [Compound 38, (phenylmethyl) (2,4,6-trihydroxyphenyl) ketone] are 55.8 ± 7.7 and 57.9%.
On the same counts, the results for `CC(C)=CCc1c(O)c(CC=C(C)C)c(O)c(C(=O)Cc2ccccc2)c1O` [Compound 39, {3,5-bis(3-methyl-2-butenyl)-2,4,6-trihydroxyphenyl} (phenylmethyl) ketone] are 49.2 ± 9.4 and 72.6%.
As for `CC(C)=CCC1=C(O)C(CC=C(C)C)(CC=C(C)C)C(=O)C(C(=O)Cc2ccccc2)=C1O` [Compound 40, 3,5-dihydroxy-6-(phenylacetyl)-2,2,4-tris(3-methyl-2-butenyl)-cyclohexa-3,5-dienone], the “No. of absorption pits (Mean ± SD)” value came out at 4.9 ± 3.8 and the inhibition at 10 µM was found to be 96.1%.
The corresponding values for `CC(C)=CCC1(CC=C(C)C)C(=O)C(C(=O)Cc2ccccc2)=C(O)C=C1O` [Compound 41, 3,5-dihydroxy-6-(phenylacetyl)-2,2-bis(3-methyl-2-butenyl)cyclohexa-3,5-dienone] are 3.2 ± 0.7 and 97.4%.
On the same counts, the results for `CC(C)=CCc1c(O)cc(O)c(C(=O)Cc2ccccc2)c1O` [Compound 42, {3-(3-methyl-2-butenyl)-2,4,6-trihydroxyphenyl} (phenylmethyl) ketone] are 31.7 ± 3.6 and 74.7%.
The corresponding values for `CC(C)=CCCC(C)=CCc1c(O)c(CC=C(C)CCC=C(C)C)c(O)c(C(=O)Cc2ccccc2)c1O` [Compound 43, {3,5-bis(3,7-dimethyl-2,6-octadienyl)-2,4,6-trihydroxyphenyl} (phenylmethyl) ketone] are 11.3 ± 2.5 and 95%.
